According to patent US10925923B2, “Peptide having anti-inflammatory activity, and use thereof” (CAREGEN CO., LTD., priority 2016, dated 2021):
Where no end group is shown, it is not given here.

How the values were obtained:
INF-γ = assay: ELISA (splenocytes), INF-γ secretion; assay type: cell-based, mice; conditions: LPS stimulator, 48 hours
Experimental: (§1) The splenocytes treated with the peptide samples and the stimulator LPS in example 1 were incubated for 48 hours, and then the culture media were collected. The obtained media were subjected to an experiment using an ELISA kit (R&D system) for cytokines (TNF-α and INF-γ) to be investigated.

IL-2 = IL-2 RT-PCR in LPS-stimulated splenocytes; assay type: cell-based, mice; conditions: mouse splenocytes, LPS stimulator, peptide 0.2, 2, 20 ug/ml
COX2 = assay: Western blot of COX2 in splenocytes; assay type: cell-based, mice; conditions: peptide 0.2-20 ug/ml, 24 hours
Experimental: The splenocytes obtained in example 1 were seeded in 24-well plate at cell density of 1×10^7 cells/well. Then, after incubation overnight, the cells were treated with the peptides of SEQ ID NO: 1, SEQ ID NO: 2 and SEQ ID NO: 3 with different concentrations (0.2-20 ug/ml), followed by incubation in an incubator at 37° C. for 24 hours, and then the cells were treated with cell lysis buffer to secure lysate, followed by protein quantification. Then, western blotting with respect to the inflammation inducing factor COX2 was conducted, and the results are shown in FIGS. 2a to 2f.

Raw264.7 cells = assay: FACS intracellular ROS assay (DCF-DA); assay type: cell-based; conditions: pre-treated at 1, 10, 50 ug/ml, then LPS
Experimental: Raw264.7 cells were seeded at 1×10^6 cells/6-well, and incubated overnight. The cells were pre-treated with samples to be investigated at 1, 10, and 50 ug/ml, and after 30 minutes, the cells were treated with LPS. The cells were incubated according to the scheduled time point, and then 30 minutes after the treatment with DCF-DH, the oxidation activity was measured by the degree of fluorescence using FACS.

TNF-α [1] = assay: ELISA (Raw264.7 cells), TNF-α secretion; assay type: cell-based; conditions: pre-treated at 0.2, 2, 20 ug/ml, then LPS, 24 hours
Experimental: Raw264.7 cells were seeded at 1×10^6 cells/48-well, and incubated overnight. The cells were pre-treated with samples to be investigated at 0.2, 2, and 20 ug/ml, and after 30 minutes, the cells were treated with LPS. Incubation was conducted at the scheduled time point. After 24 hours, the culture media were collected, and the obtained media were subjected to an experiment using an ELISA kit (R&D system) for cytokine (TNF-α) to be investigated.

CD3+ and CD25+ cells = assay: Activation T cell analysis (FACS), CD3 and CD25 markers; assay type: cell-based, mice; conditions: splenocytes, LPS stimulator, 24 hours
Experimental: The cells were treated with the peptide samples and the stimulator LPS as described in example 1, and after 24 hours, the cells were treated with antibody (CD3 and CD25) activation T cell markers for 30 minutes, followed by washing twice with PBS, and then FACS was conducted.

TNF-α [2] = assay: ELISA (splenocytes), TNF-α secretion; assay type: cell-based, mice; conditions: LPS stimulator, 48 hours
Experimental: as §1

TNF-α [3] = assay: TNF-α RT-PCR in LPS-stimulated splenocytes; assay type: cell-based, mice; conditions: mouse splenocytes, LPS stimulator, peptide 0.2, 2, 20 ug/ml
Experimental: [The procedure below names another target; the source lists this target under the same test.] After 6-7-week-old mice were sacrificed to obtain spleen, the spleen was crushed using a cell filter, and centrifuged with serum-free RPMI 1640 medium. The upper layer was discarded, and for removal of red blood cells (RBC), RBC lysis buffer was used.
RBC was removed twice, followed by washing with serum-free RPMI1640 medium, and then an appropriate amount of serum-free RPMI1640 medium was added.
The cells were counted, and seeded in 96-well plate (1×10^6 cells/well) and 24-well plate (1×10^7 cells/dish). The next day, the cells were treated with respective peptide samples (0.2, 2, 20 ug/ml) and the stimulator LPS. Here, the experiment was performed by adjusting the time point.
Total RNA was extracted using Easy Blue (Intron). For synthesis of single-stranded DNA from RNA, RT premix (Intron) was used, and 3 ug of RNA, 2 ug of random hexamer, and DEPC-treated water were added thereto to reach a total volume of 20 ul, followed by reaction for 5 minutes at 65° C. and 1 hour at 42° C. Heating was again conducted at 95° C. for 5 minutes to prepare cDNA.
PCR was conducted by mixing 3 ul of cDNA and 10 pmole primers specific to CGI 58 gene with PCR premix (Intron). PCR conditions were: 94° C. for 30 seconds, 55-56° C. for 30 seconds, and 72° C. for 30 seconds. Genes were analyzed in the conditions in which the PCR results could be exponentially amplified. 5 ul of PCR product was obtained, electrophoresed on 1% agarose gel, and stained with ethidium bromide.

Row | Substance | secretion of INF-γ in splenocytes (ELISA) (INF-γ) | expression of IL-2 (RT-PCR) (IL-2) | expression of COX2 (western blot) (COX2) | ROS production (Raw264.7 cells) | secretion of TNF-α in RAW264.7 cells (ELISA) (TNF-α [1]) | CD3+ and CD25+ cells (FACS) (CD3+ and CD25+ cells) | secretion of TNF-α in splenocytes (ELISA) (TNF-α [2]) | expression of TNF-α (RT-PCR) (TNF-α [3])
1 | Asp-Asn-Cys-Leu-Arg (DNCLR) [SEQ ID NO: 2] | decreased | tend to decrease | reduced | reduced | tended to decrease | decreased | decreased | tend to decrease
2 | GVQHQASPY [SEQ ID NO: 3] | – | tend to decrease | reduced | reduced | decreased | decreased | – | tend to decrease
3 | Thr-Met-Arg-Asp (TMRD) [SEQ ID NO: 1] | decreased | tend to decrease | reduced | reduced | tended to decrease | decreased | decreased | tend to decrease
